The values below are quoted from earlier work in publication PMC6606825 (Journal of Ginseng Research, 2018).

One series has as its system P-gp. Particulars: in vitro and in situ; cited from earlier work.
The conditions of series [1]: PK data in animals and healthy individuals; cited from earlier work.
In series [2] the test system is cytochrome P450 enzymes (CYPs). To be noted: in vitro; ref unpublished; cited from earlier work.

Regarding `CC(C)=CCC[C@](C)(O)[C@H]1CC[C@]2(C)[C@@H]1[C@H](O)C[C@@H]1[C@@]3(C)CC[C@H](O)C(C)(C)[C@@H]3CC[C@]12C` [20(S)-PPD, 20(S)-protopanaxadiol], the P-gp inhibition entry with P-gp is on record as “inhibit P-gp”.
On to `CC(C)=CCC[C@](C)(O[C@@H]1O[C@H](CO)[C@@H](O)[C@H](O)[C@H]1O)[C@H]1CC[C@]2(C)[C@@H]1[C@H](O)C[C@@H]1[C@@]3(C)CC[C@H](O)C(C)(C)[C@@H]3CC[C@]12C` [Ginsenoside compound K, 20-O-beta-D-glucopyranosyl-20(S)-protopanaxadiol], for which the oral bioavailability result in series [1] is listed as “poor oral bioavailability”. The “effects of CYPs on CK” value in series [2] is given as “minimal effects”. Besides, the P-gp inhibition result in the series with P-gp is “inhibit P-gp”.
